Experimental data from ChEMBL document CHEMBL5303765, “Data for DCP probe BAY-7081” (2023).

Experiments:
[1] = molecular target: T1, Serine/threonine-protein kinase Nek1 (Homo sapiens) (UniProt Q96PY6); experiment: NEK1 SGC Tm panel (DSF); settings: for ΔTm: Compound concentration 10.0 uM
T1 sequence (whole entry): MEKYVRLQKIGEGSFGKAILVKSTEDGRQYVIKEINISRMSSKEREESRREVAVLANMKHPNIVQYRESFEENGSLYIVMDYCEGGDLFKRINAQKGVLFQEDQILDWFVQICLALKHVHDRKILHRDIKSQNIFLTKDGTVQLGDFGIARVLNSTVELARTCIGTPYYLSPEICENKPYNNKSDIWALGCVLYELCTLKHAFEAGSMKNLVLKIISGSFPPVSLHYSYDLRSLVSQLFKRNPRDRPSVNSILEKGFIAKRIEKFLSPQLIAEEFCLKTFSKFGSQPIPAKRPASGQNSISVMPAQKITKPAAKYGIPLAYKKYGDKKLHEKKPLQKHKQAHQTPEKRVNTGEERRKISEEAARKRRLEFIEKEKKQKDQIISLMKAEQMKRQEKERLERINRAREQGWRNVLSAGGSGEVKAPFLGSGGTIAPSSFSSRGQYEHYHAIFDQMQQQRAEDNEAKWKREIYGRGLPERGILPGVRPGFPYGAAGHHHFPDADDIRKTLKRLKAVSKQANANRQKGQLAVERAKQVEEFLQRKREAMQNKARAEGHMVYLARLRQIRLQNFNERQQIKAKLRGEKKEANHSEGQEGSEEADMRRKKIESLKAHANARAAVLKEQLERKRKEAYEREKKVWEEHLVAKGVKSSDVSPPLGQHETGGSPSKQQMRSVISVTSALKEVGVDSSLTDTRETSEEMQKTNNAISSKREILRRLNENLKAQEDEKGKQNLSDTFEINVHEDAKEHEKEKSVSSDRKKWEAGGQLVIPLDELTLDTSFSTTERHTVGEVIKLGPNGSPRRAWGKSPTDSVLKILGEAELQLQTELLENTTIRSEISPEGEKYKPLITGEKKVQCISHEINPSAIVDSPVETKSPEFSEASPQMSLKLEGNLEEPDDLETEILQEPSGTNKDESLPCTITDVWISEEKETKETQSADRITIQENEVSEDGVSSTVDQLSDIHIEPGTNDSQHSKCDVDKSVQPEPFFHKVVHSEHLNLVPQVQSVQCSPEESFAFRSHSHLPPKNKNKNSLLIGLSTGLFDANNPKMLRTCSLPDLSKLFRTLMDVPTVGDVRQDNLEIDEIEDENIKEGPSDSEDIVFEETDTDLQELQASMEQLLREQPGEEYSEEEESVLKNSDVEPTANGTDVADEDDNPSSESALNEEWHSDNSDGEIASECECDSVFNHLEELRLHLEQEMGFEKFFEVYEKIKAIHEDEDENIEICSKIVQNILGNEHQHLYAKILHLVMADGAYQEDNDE

[2] = molecular target: Ephrin type-A receptor 7 (Homo sapiens) (UniProt Q15375); experiment: EPHA7 SGC Tm panel (DSF); settings: for ΔTm: Compound concentration 10.0 uM
[3] = molecular target: Homeodomain-interacting protein kinase 2 (Homo sapiens) (UniProt Q9H2X6); experiment: HIPK2 SGC Tm panel (DSF); settings: for ΔTm: Compound concentration 10.0 uM
[4] = molecular target: D(2) dopamine receptor (Homo sapiens) (UniProt P14416); settings: Compound concentration 10.0 uM
[5] = molecular target: Aurora kinase B (Homo sapiens) (UniProt Q96GD4); experiment: AURKB SGC Tm panel (DSF); settings: for ΔTm: Compound concentration 10.0 uM
[6] = molecular target: Mitogen-activated protein kinase 1 (Homo sapiens) (UniProt P28482); experiment: MAPK1 SGC Tm panel (DSF); settings: for ΔTm: Compound concentration 10.0 uM
[7] = molecular target: Sigma intracellular receptor 2 (Homo sapiens) (UniProt Q5BJF2); settings: Compound concentration 10.0 uM
[8] = molecular target: Beta-2 adrenergic receptor (Homo sapiens) (UniProt P07550); settings: Compound concentration 10.0 uM
[9] = molecular target: T2, Alpha-2C adrenergic receptor (Homo sapiens) (UniProt P18825); settings: Compound concentration 10.0 uM
T2 sequence (whole entry): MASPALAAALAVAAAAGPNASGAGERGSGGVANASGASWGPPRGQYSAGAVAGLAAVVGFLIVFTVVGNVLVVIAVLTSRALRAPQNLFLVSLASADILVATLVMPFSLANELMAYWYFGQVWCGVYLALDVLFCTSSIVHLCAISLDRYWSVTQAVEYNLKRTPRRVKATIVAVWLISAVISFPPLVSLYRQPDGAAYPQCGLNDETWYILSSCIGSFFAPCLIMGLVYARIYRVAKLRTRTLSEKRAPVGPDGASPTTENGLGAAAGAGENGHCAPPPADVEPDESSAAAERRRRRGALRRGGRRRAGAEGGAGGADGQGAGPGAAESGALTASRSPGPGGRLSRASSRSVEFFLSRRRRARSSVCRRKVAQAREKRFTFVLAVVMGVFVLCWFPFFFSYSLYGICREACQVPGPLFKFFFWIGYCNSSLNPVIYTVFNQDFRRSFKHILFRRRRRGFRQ

[10] = molecular target: Ephrin type-A receptor 4 (Homo sapiens) (UniProt P54764); experiment: EPHA4 SGC Tm panel (DSF); settings: for ΔTm: Compound concentration 10.0 uM
Chain of Ephrin type-A receptor 4 (Homo sapiens) (P54764 whole entry): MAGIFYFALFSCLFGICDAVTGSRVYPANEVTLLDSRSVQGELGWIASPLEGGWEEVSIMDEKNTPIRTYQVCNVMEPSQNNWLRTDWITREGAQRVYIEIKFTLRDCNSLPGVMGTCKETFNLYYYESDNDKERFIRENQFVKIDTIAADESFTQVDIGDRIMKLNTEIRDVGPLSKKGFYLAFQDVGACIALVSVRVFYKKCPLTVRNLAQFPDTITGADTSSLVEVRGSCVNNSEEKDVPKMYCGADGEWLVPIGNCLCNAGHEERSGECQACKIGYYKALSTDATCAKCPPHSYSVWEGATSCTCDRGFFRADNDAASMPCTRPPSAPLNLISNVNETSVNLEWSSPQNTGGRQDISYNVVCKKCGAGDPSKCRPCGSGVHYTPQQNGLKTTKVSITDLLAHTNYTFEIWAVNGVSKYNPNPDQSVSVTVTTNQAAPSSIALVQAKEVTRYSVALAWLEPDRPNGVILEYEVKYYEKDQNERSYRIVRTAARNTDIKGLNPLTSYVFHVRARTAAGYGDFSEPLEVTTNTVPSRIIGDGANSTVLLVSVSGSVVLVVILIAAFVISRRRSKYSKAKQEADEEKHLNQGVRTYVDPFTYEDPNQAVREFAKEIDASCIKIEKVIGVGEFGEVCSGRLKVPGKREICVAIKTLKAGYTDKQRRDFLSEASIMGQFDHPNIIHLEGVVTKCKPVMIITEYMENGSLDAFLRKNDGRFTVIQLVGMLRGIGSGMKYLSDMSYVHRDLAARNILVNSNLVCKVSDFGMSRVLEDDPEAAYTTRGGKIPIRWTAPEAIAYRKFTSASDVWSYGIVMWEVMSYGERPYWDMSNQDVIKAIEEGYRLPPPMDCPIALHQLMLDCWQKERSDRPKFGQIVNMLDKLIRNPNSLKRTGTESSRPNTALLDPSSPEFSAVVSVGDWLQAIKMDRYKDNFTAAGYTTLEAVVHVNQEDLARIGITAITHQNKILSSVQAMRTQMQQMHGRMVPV

Chain of Beta-2 adrenergic receptor (Homo sapiens) (P07550 whole entry, looked up): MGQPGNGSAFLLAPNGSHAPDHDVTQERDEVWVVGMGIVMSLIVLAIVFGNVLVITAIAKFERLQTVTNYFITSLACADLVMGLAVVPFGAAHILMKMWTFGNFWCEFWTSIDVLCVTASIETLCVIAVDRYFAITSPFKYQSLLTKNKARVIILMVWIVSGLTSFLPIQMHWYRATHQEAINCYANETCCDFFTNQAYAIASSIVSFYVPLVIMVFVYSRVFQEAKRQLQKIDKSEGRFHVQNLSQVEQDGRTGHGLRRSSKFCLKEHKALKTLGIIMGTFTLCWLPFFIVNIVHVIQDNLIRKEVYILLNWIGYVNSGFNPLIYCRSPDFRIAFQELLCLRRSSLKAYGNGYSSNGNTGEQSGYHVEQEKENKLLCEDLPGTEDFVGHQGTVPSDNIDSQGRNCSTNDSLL
Chain of Homeodomain-interacting protein kinase 2 (Homo sapiens) (Q9H2X6 whole entry, looked up): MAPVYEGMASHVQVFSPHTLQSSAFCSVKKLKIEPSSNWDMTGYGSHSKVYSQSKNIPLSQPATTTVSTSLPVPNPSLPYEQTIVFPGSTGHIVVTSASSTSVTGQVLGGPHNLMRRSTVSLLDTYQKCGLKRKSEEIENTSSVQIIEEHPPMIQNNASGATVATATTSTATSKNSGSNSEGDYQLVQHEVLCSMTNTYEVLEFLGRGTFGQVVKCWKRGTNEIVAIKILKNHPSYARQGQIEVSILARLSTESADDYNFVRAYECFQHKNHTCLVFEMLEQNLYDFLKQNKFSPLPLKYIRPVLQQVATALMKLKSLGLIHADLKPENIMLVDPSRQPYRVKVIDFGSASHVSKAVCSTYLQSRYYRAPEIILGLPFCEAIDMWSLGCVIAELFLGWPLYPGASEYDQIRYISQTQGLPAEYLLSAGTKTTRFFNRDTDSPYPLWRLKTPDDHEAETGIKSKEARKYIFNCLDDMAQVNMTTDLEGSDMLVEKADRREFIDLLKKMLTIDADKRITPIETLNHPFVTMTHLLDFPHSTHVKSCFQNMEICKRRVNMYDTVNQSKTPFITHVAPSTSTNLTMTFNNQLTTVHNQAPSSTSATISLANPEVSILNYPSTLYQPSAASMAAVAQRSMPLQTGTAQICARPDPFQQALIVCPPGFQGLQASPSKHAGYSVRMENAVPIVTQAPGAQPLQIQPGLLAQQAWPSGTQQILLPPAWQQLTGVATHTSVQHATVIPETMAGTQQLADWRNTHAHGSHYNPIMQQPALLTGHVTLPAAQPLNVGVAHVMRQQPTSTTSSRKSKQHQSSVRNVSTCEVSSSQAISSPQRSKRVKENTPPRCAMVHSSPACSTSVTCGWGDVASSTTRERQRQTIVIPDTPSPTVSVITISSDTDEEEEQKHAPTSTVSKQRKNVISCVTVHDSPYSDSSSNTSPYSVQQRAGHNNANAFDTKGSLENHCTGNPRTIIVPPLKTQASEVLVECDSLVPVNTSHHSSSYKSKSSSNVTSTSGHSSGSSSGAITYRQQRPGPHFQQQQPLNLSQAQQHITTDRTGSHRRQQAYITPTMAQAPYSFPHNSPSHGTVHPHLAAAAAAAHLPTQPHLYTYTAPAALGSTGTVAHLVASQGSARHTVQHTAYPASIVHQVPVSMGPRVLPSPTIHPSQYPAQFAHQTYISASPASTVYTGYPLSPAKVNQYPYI
Chain of Mitogen-activated protein kinase 1 (Homo sapiens) (P28482 whole entry): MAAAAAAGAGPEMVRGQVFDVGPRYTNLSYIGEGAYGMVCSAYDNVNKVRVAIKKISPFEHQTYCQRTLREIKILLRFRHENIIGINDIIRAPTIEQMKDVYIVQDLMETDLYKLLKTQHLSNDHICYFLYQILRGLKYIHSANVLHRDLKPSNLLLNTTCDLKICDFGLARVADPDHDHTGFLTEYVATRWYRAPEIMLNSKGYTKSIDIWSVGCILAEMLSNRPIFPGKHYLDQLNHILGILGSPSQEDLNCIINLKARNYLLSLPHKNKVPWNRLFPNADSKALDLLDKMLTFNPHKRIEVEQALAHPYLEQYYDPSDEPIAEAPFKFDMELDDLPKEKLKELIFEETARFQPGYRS
Chain of D(2) dopamine receptor (Homo sapiens) (P14416 whole entry): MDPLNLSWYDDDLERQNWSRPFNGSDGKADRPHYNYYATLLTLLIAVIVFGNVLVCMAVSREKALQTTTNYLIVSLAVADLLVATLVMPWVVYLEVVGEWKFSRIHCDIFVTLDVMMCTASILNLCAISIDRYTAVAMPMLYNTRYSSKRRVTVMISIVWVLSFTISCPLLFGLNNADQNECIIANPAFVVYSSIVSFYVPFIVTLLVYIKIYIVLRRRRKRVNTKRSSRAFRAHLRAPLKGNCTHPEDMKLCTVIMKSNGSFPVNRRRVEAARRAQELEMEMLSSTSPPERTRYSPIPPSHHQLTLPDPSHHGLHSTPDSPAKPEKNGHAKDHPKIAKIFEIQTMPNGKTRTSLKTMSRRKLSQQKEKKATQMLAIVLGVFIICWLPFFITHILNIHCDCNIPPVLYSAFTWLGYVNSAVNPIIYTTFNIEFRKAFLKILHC
Chain of Sigma intracellular receptor 2 (Homo sapiens) (Q5BJF2 whole entry): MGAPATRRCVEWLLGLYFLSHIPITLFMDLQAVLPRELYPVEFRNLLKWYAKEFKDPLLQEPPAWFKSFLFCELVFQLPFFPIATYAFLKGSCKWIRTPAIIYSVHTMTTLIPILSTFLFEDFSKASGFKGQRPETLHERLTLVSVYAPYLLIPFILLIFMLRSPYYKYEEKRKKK
Chain of Aurora kinase B (Homo sapiens) (Q96GD4 whole entry): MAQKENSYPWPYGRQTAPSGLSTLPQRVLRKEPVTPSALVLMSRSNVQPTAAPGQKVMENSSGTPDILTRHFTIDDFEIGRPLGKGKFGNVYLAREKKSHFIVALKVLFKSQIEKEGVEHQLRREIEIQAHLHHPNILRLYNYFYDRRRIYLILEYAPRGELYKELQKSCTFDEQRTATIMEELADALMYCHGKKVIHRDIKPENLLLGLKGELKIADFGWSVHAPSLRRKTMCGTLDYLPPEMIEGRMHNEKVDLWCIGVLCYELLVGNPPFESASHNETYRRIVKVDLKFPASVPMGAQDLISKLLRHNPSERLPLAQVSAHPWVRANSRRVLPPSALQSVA
Chain of Ephrin type-A receptor 7 (Homo sapiens) (Q15375 28-998 limits assumed): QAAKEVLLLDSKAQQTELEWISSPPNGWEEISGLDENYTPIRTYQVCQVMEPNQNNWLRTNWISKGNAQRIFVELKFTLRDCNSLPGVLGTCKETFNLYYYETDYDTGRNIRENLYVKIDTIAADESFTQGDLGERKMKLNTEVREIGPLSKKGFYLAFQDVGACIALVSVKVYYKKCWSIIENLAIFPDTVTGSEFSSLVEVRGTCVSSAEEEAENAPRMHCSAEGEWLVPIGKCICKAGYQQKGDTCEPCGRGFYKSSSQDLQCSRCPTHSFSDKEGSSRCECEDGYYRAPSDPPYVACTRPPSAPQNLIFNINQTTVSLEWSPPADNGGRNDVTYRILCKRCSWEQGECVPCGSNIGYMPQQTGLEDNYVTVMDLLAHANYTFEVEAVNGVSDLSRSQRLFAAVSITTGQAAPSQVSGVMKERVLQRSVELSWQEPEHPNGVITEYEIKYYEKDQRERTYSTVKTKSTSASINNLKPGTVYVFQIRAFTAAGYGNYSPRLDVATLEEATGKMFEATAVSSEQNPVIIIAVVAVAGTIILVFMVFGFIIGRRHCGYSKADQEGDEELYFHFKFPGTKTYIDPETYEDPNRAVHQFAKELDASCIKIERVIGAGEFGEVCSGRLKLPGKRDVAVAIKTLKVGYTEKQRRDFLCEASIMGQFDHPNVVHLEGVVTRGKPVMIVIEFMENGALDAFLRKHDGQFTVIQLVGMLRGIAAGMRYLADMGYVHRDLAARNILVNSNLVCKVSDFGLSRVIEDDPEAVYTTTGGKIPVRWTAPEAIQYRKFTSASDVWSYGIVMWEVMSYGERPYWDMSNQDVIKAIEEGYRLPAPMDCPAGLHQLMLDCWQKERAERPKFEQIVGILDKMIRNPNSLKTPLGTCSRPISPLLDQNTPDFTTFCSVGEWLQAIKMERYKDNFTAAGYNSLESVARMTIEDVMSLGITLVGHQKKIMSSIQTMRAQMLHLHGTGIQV

CCC[C@H]1CNCc2c1[nH]c(=O)c(C#N)c2N1CCC2(CC1)CC2
delta Tm Staurosporine positive control [1]: 2.43
ΔTm [1]: 0.404
delta Tm Staurosporine positive control [2]: 12.1
ΔTm [2]: -0.592
delta Tm Staurosporine positive control [3]: 4.23
ΔTm [3]: -0.31
inhibition [4]: 3.01%
delta Tm Staurosporine positive control [5]: 14.1
ΔTm [5]: -0.229
delta Tm Staurosporine positive control [6]: 3.56
ΔTm [6]: -0.182
inhibition [7]: -5%
inhibition [8]: -6.31%
inhibition [9]: 2.5%
delta Tm Staurosporine positive control [10]: 6.68
ΔTm [10]: -0.324

CCC[C@@H]1CNCc2c1[nH]c(=O)c(C#N)c2N1CCC2(CC1)CC2
delta Tm Staurosporine positive control [1]: 2.43
ΔTm [1]: 0.25
delta Tm Staurosporine positive control [2]: 12.1
ΔTm [2]: -0.583
delta Tm Staurosporine positive control [3]: 4.23
ΔTm [3]: -0.297
inhibition [4]: -4.21%
delta Tm Staurosporine positive control [5]: 14.1
ΔTm [5]: -0.199
delta Tm Staurosporine positive control [6]: 3.56
ΔTm [6]: -0.19
inhibition [7]: -4.19%
inhibition [8]: -6.78%
inhibition [9]: -0.07%
delta Tm Staurosporine positive control [10]: 6.68
ΔTm [10]: -0.295
